Reference: article PMC5834442, “Identifying inhibitors of the Leishmania inositol phosphorylceramide synthase with antiprotozoal activity using a yeast-based assay and ultra-high throughput screening platform” (Scientific Reports, 2018)

Test system: L. donovani (MHOM/SD/62/1S-CL2D, LdBOB) axenic amastigotes
Assay: Leishmania donovani axenic amastigote dose response assay (resazurin)
Assay type: cell-based
Details: -logIC50 mol against L. donovani (LdBOB) axenic amastigotes, read-out: pIC50 Axenic (converted)

| Compound | IC50 [µM] |
| --- | --- |
| COc1cccc(C(=O)Nc2nc(-c3cccs3)ns2)c1 [ST/1197587] | 21.9 |
| Cc1ccnc2nc(C(=O)N3CCCSC3=Nc3cccc(C(F)(F)F)c3)nn12 [ST/682329] | 31.6 |
| CCc1cccc(NC(=O)Nc2cc(F)ccc2F)c1 [SC/109224] | 15.1 |
| NC(=O)c1cc(-c2csc(-c3ccsc3)n2)ccc1O [ST/1241904] | 20.9 |
| CN1CCC(Oc2cccc(C(=O)N3CCC(CNS(=O)(=O)c4cccc(F)c4)CC3)c2)CC1 [DS205504-126A32B5C8] | > 50 |
| COc1ccc2cc(C(=O)Nc3ccc(F)c(Cl)c3)[nH]c2c1 [ST/803999] | 11.2 |
| FC(F)(F)c1ccc(Nc2nc(-c3ccncc3)cs2)cc1 [ST/510927] | 27.5 |
| O=C(Nc1c(Br)c(C2CC2)nn1-c1ccccc1)C(Cl)(Cl)Cl [SC/96415] | 20.4 |
| O=S(=O)(Nc1cccc2nsnc12)c1cccs1 [SC/96769] | 24.5 |
| CC(=O)N1N=C(COc2ccc(Cl)c(C)c2)OC1c1ccc(C)o1 (stereo not shown) [ST/1451045] | 19.1 |
| c1ccc(N2CCN(c3ncc(-c4cccs4)cn3)CC2)nc1 [SC/89927] | > 50 |
| O=C(NCc1ccc2c(c1)OCO2)c1ccccc1NS(=O)(=O)c1cccs1 [ST/1217724] | 11.5 |
| CC(c1ccccc1)N1Cc2cccc(C(=O)O)c2C1=O (stereo not shown) [ST/641236] | > 50 |
| Nc1nonc1-c1nc2c(-c3cccc(F)c3)nccc2n1C1CCNCC1 [IS203450-048A1] | 40.7 |
| Fc1ccc(-c2nn3c(OCC(F)(F)F)cccc3c2-c2ccncc2)cc1 [U12546/102/3] | 13.5 |
| O=C(NC1=NN(c2ccc(Cl)c(Cl)c2)CC1)c1ncccn1 [N7030-10-104] | > 50 |
| O=C(NCCc1ccccc1)c1ccccc1NS(=O)(=O)c1cccs1 [ST/648091] | 18.6 |
| O=C(Nc1nnc(COc2ccc(F)cc2)s1)c1cnccn1 [ST/389620] | 33.1 |
| CN1CC[C@@H](Oc2cc(CNC(=O)c3ccc(Br)cc3)ccc2Cl)C1 [DZ203929-138A2] | > 50 |
| Nc1ncc(-c2ccccc2)cc1-c1nc2ccccc2[nH]1 [U18123/163/3] | 37.2 |
| Nc1ccc(S(=O)(=O)Nc2ccccc2Oc2ccc(Cl)cc2Cl)cc1 [SC/79553] | 10.5 |
| CSc1nsc(NC(=O)Nc2ccc(Cl)cc2)n1 [ST/905433] | 30.2 |
| COc1ccc(Br)cc1C(=O)Nc1cc(Cl)ccc1O [ST/1108634] | 16.6 |
| Cc1ccccc1NC(=O)COc1ccccc1NS(=O)(=O)c1cccs1 [N6862-82-2] | > 50 |
| O=C(c1ccco1)c1cn(Cc2ccc(F)cc2)c2ccccc12 [ST/727705] | 28.8 |

| Compound | IC50 [µM] |
| --- | --- |
| O[C@@](Cn1cncn1)(c1ccc(F)cc1F)C1CCOCC1 [RB/854/3] | > 50 |
| O=S(=O)(Nc1cccc2nsnc12)c1ccccc1 [ST/663705] | 39.8 |
| N#Cc1ccc(NCCOc2ccc3ccccc3c2)nc1 [ST/1543199] | > 50 |
| CCc1noc2nc(C)nc(NC3CCCCCC3)c12 [ST/1113587] | 46.8 |
| CCOc1cccc(C(=O)Nc2cc(-c3nc4ccccc4[nH]3)ccc2C)c1 [ST/591387] | 15.8 |
| O=C(c1ccccc1)N1C(=O)C(c2ccccc2)Oc2ccccc21 (stereo not shown) [ST/629481] | 24.5 |
| O=C(NC1=NN(c2ccc(Cl)c(Cl)c2)CC1)c1ccncc1 [N11828-23-3] | > 50 |
| O=c1cc(-c2ccccc2O)oc2ccccc12 [SC/32543] | > 50 |
| CC(=O)N1N=C(c2ccccc2Cl)OC1COc1ccc(Cl)cc1 (stereo not shown) [ST/1451125] | 15.8 |
| Cc1cc(Cl)ccc1NC(=O)COc1ccccc1NS(=O)(=O)c1cccs1 [N6862-82-1] | 20 |
| O=c1nc(SCc2ccccc2Cl)c2c([nH]1)CCCC2 [ST/1287093] | > 50 |
| O=C(c1ccc(Cl)cc1)N1CCCn2c1nc1ccccc1c2=O [ST/1938375] | > 50 |
| O=S(=O)(Nc1cc(Cl)ccc1O)c1ccc(Cl)c(Cl)c1 [R10040/200/6] | 12 |
| CCCCCc1c(C)nc(Nc2ccccc2)[nH]c1=O [ST/1105254] | 17.4 |
| CC1CSC(N(C(=O)CCc2ccco2)c2ccc(Cl)cc2)=N1 (stereo not shown) [ST/816400] | 21.9 |
| Fc1ccc(-c2nc(-c3cccs3)[nH]c2-c2ccncc2)cc1 [JMS-15898-298-1] | 20.9 |
| Cc1cc(Cl)ccc1NC(=O)CN(c1ccccc1C(=O)O)S(=O)(=O)c1cccs1 [N9272-3-4] | > 50 |
| CC1CSC(N(C(=O)CN2CSCC2=O)c2ccc(Cl)cc2)=N1 (stereo not shown) [ST/812474] | > 50 |
| O=S(=O)(Nc1ccccc1CN1CCC(F)(F)C1)c1ccc(Cl)c(Cl)c1 [DS105792-004A16B1] | 22.4 |
| O=S(=O)(Nc1cccc(F)c1CNCc1ccco1)c1ccc(Cl)c(Cl)c1 [DS105792-055A6B42] | 19.5 |
| O=S(=O)(c1ccccc1)N1CCN(c2nccc(-c3cccs3)n2)CC1 [ST/1415180] | 39.8 |
| Cc1ccc(C2=NN(S(=O)(=O)c3ccc(Cl)cc3F)C(C)C2)cc1 (stereo not shown) [U20197/52/94] | > 50 |
| CC1CCc2c(sc(NC(=O)c3cccs3)c2C#N)C1 (stereo not shown) [SC/95708] | > 50 |
| O=S(=O)(Nc1c(F)cccc1C(F)(F)F)c1ccc(-c2ccccc2F)s1 [DJ107456-080A211] | 26.9 |
| c1ccc2oc(-c3ccnc4nncn34)cc2c1 [ST/1803771] | > 50 |

| Compound | IC50 [µM] |
| --- | --- |
| N#Cc1ccc(NC(=O)c2cccs2)cc1C#N [ST/646239] | 20.9 |
| O=c1c(O)c(-c2ccccc2)oc2cc(O)cc(O)c12 [ST/2097267] | 20.4 |
| Cc1cc(C)n2nc(S(=O)(=O)Nc3c(Cl)cccc3Cl)nc2n1 [ST/833860] | 41.7 |
| O=C(c1cccs1)c1conc1C(=O)c1ccc(Br)cc1 [ST/261533] | > 50 |
| CCOc1nc2ccccc2nc1NS(=O)(=O)c1ccccc1 [ST/646349] | 22.9 |
| COc1cccc2[nH]c(C(=O)Nc3cccc(Cl)c3)cc12 [ST/803957] | 12.3 |
| COc1cc2c(cc1S(=O)(=O)c1ccc(COc3cccc(F)c3)cc1)CCN(C)CC2 [DC101675-085A1] | > 50 |
| O=S(=O)(Nc1cccc(F)c1CNCc1ccco1)c1ccccc1Cl [DS105792-055A7B42] | 32.4 |
| O=C(Nc1cccc(Cl)c1)Nc1ccc2snnc2c1 [ST/736217] | 13.5 |
| O=C(O)Cc1c(-c2cccs2)nc2ccccc2c1-c1ccccc1 [ST/1080669] | 12.9 |
| CCN(C(=O)Cc1c(C(=O)O)[nH]c2ccccc12)c1cc(C)ccc1C [ST/728445] | 18.2 |
| O=C(Nc1ccccc1C(=O)NCc1ccc(Cl)cc1)c1ccco1 [ST/771851] | > 50 |
| O=C(NCc1cccs1)c1sccc1NS(=O)(=O)c1ccccc1 [RF44798-098A21] | 12.3 |
| Cc1oc(-c2ccc(Cl)cc2)cc1C(=O)NCC(=O)c1cccs1 [ST/1260077] | 34.7 |
| CNC(=O)CN(C)c1nc(-c2cccs2)nc2sc(C)c(C)c12 [ST/1245806] | > 50 |
| O=C(Nc1nnc(C(F)(F)F)s1)c1ccc(Br)s1 [ST/782334] | 11.7 |
| Cc1ccc(C2=NN(S(=O)(=O)c3cc(Cl)sc3Cl)C(C)C2)cc1 (stereo not shown) [U20197/52/63] | 32.4 |
| N#Cc1ccc(Cn2cc(C(=O)c3cccs3)c3ccccc32)cc1 [ST/516872] | 14.8 |
| COc1ccc(-c2ccc(S(=O)(=O)Nc3ncc(Cl)cc3Cl)s2)cc1 [DJ107456-088A34] | 27.5 |
| CSc1ccccc1NS(=O)(=O)c1cccs1 [ST/867134] | > 50 |
| Nc1ccc(-c2nc3cc(Cl)cc(Cl)c3o2)cc1 [ST/525525] | 49 |
| O=C(Nc1cccc(C(F)(F)F)c1)c1cc(-c2cccc(O)c2)on1 [ST/728737] | > 50 |
| O=C(Nc1cc(Cl)c(O)c(Cl)c1)c1ccc(Br)cc1 [ST/869684] | 17.8 |
| CNc1nc(N)c([N+](=O)[O-])c(Nc2cccc(Cl)c2)n1 [ST/537896] | 19.5 |
| O=C(Nc1ccc(NC(=O)c2cccs2)cc1Cl)c1ccccc1 [ST/1125044] | > 50 |

| Compound | IC50 [µM] |
| --- | --- |
| O=C(Nc1oc2ccc(Cl)cc2c(=O)c1-c1ccc(Br)cc1)c1ccco1 [ST/802162] | 25.1 |
| Cc1oc2cc(O)ccc2c(=O)c1-c1nc2ccccc2s1 [ST/517902] | > 50 |
| O=C1CCc2cc(-c3csc(-c4cccnc4)n3)ccc2N1 [R9196/29/59] | > 50 |
| N=c1nc2n(c(=N)[nH]1)NC(c1ccc(Cl)cc1)=CS2 [ST/1850161] | 47.9 |
| CC(=O)N1N=C(COc2ccccc2Br)OC1C=Cc1ccccc1 (stereo not shown) [ST/1451035] | > 50 |
| CN1CCN(CC(=O)Nc2ccc(C(F)(F)F)cc2)CC1c1ccccc1 (stereo not shown) [ST/961463] | > 50 |
| O=C(NCc1ccco1)c1ccccc1NS(=O)(=O)c1cccs1 [ST/662660] | 20.4 |
| CC(NC(=O)c1c(O)c2sccc2[nH]c1=O)c1ccc(F)cc1 (stereo not shown) [ST/1962332] | > 50 |
| Cc1ccccc1S(=O)(=O)N1CCN(c2nccc(-c3cccs3)n2)CC1 [ST/1415177] | 21.9 |
| Cc1ccc(-c2nc3ccccc3[nH]2)cc1NC(=O)c1cc2ccccc2o1 [ST48766-047X8] | 11.7 |
| O=S(=O)(Nc1ccccc1C(F)(F)F)c1ccc(-c2cccs2)s1 [DJ107456-053A67] | 14.8 |
| COCC(C)NC(=O)c1c(O)nc2c(C)cccn2c1=O (stereo not shown) [ST/1131522] | > 50 |
| CN1CCN(c2ccc3ncc(-c4cccc(NC(=O)Cc5cccs5)c4)n3n2)CC1 [R11466/151/4] | > 50 |
| CC1CSC(N(C(=O)Cn2cnnn2)c2ccc(Cl)cc2)=N1 (stereo not shown) [ST/811532] | > 50 |
| CN1CCN(CC(=O)Nc2ccc3c(c2)CCC3)CC1c1ccccc1 (stereo not shown) [ST/961462] | > 50 |
| COc1ccc(S(=O)(=O)Nc2ccccc2C(F)(F)F)c(Cl)c1Cl [ST/534228] | 19.5 |
| COc1ccc(C(=O)c2nocc2C(=O)c2ccc(Cl)cc2)cc1 [ST/261550] | 44.7 |
| Nc1ccc(Br)cc1-c1nc(N)c2cc(Br)ccc2n1 [N4309-86-B1] | > 50 |
| O=C1CCc2cc(-c3csc(-c4ccsc4)n3)ccc2N1 [ST/1544102] | > 50 |
| CCOc1cc(S(=O)(=O)N2CCN(Cc3ccc4c(c3)OCO4)CC2)ccc1Br [ST/910382] | 21.4 |
| Cc1c(-c2noc(-c3ccc(OC(C)C)c(Cl)c3)n2)ccc2c1CCNC2 [N11266-30-A1] | 22.4 |
| Fc1ccc(CNc2ncc(-c3ccncc3)c(-c3ccoc3)n2)cc1 [ST/945994] | > 50 |
